The nature of one data set: Stability in rat plasma. The data set is classed as in vitro ADME. The settings on record: for Half life in rat plasma: heparinized plasma, diluted as needed with BSA/D-PBS, 250-323 μg/ml. Here is the method:
(§1) Rat, rabbit, and human plasma
(§2) Heparinized plasma: 30 to 40 parts
(rat plasma was diluted, as needed, with 30 mg-BSA/ml-D-PBS (pH 7.4) for use)

Data set [1] can be described thus: Stability in rabbit plasma. Conditions: rabbit, plasma. Here is the method:
(§3) (1) Bovine serum albumin (hereinafter referred to as BSA), Dulbecco's phosphate buffered saline (hereinafter referred to as D-PBS), swine liver esterase, and rabbit liver esterase were purchased from Sigma, 6-week old male SD rats were purchased from Nippon SLC, and 12-week old or older male Japanese white rabbits were purchased from Ichikawaya. On the day of the incubation experiment described below, blood was drawn from the animals in the presence of heparin, and plasma was separated therefrom for use. Human plasma was obtained from normal healthy males after obtaining their consent.
(§4) (2) The glutathione derivatives described in the Examples and Comparative Examples of the present invention were incubated for a fixed time in an enzyme solution having the following composition. Acetonitrile was added to the reaction mixture to inactivate the enzyme thereby to stop the reaction. The concentration of the glutathione derivatives in the deproteinized supernatant was measured by HPLC. For each time point of the esterase enzyme experiment, the mean values from two measurement or more were determined, and for the rats and rabbits the mean values of plasma samples from three individuals were determined. For some of the experiment data, changes with time of percentages relative to initial concentration of the glutathione derivative are shown in FIGS. 2 to 4.
as §1, §2
10 mg-glutathione derivative/ml-ethanol: one part (the final concentration in the reaction mixture is 250-323 μg/ml)

Data set [2] deals with human leukemia cell HL-60. Briefly: HL-60 cell differentiation induction, NBT reducing activity (Example 20). The settings on record: 4 days. The data set is classed as cell-based. Here is the method:
Using the differentiation induction effect on the granulocytes or monocytes/macrophages obtained by culturing the human leukemia cell HL-60 in the presence of 9-cys-retinoic acid (9-cis-RA) or activated vitamin D3 (1α, 25(OH)2D3), and in the coexistence of the glutathione derivatives of Examples and the Comparative Examples of the present invention, the growth-promotion activity was tested.
(1) HL-60 cells used were purchased from the cell bank (Japanese Cancer Research Resource Bank, Cell No. JCRBOO85). In accordance with a standard method, the lyophilized cell stocks that were thawed before the start of the experiment and subcultured were used.
Subculturing was carried out by centrifuging (1500 rpm, 5 minutes) the cells in suspension culture and recovering and by diluting it in a fresh culture liquid at a concentration of about 1/100 (1 to 2×10^4 cells/ml). As the culture liquid, an RPMI 1640 medium containing 10% fetal bovine serum was used.
(2) The cells subcultured in (1) were recovered by centrifugation (1500 rpm, 5 minutes), and were dispersed in the culture liquid at 2×10^4 cells/ml, which were plated on a 24-well culture plate at 1 ml/well. To this system were added the glutathione derivatives of Example 4, Example 11, Comparative Example 1 and Comparative Example 2 and a differentiation induction substance (9-cis-RA or 1α, 25(OH)2D3). Thus, 1 μl per well each of an ethanol solution of the differentiation induction substances 9-cis-RA and 1α, 25(OH)2D3 were added at 5×10^−6 M and 2×10^−6 M, respectively. Then, 1 μl per well each of ethanol solutions of the glutathione derivatives at 1×10^−4 M to 1×10^−2 M was added. As the solvent treatment for the control, 1 μl of ethanol per well was added in stead of the glutathione derivative, and as the single treatment of glutathione derivatives, 1 μl of ethanol per well was added in stead of the differentiation induction substance. After culturing at 37° C. and 5% CO2 for 4 days, the cells were recovered by centrifugation (1500 rpm, 5 minutes).
(3) The measurement of a nitroblue tetrazolium (NBT) reducing activity which is often used for the evaluation of differentiation induction effects on monocytes/macrophages or granulocytic cells was carried out according to the following procedure. Thus, the cells recovered by centrifugation in (2) were suspended in a fresh culture medium, and then NBT was added thereto to […] and 12-O-tetradecanoyl phorbol-13-acetate to 100 nM. After incubating at 37° C. for 25 minutes, cytospin samples were prepared. After air drying, the cells were subjected to Kernechtrot stain, and 500 cells per sample were examined under alight microscope to determine the ratio of the NBT reduction activity-positive cells.
(4) The result of the experiment in which glutathione derivatives at 10^−7 to 10^−5 M were treated together with a differentiation induction substances is shown in Table 4. For a single treatment of each glutathione derivative up to 10^−5 M, no increases in the NBT reducing activity was observed. In a combined treatment of a glutathione derivative and a differentiation induction substance, an enhanced ratio of the NBT reduction activity-positive cells relative to the single treatment with a differentiation induction substance was observed depending on the concentration of the glutathione derivative. There were no major differences observed in the strength of effects between the glutathione derivatives of Examples 4 and 11 and Comparative Examples 1, and 2.

Data set [3] can be described thus: Stability in human plasma. The data set is classed as in vitro ADME. The settings on record: heparinized plasma, 250-323 μg/ml.
Text: as §1, §2

For another data set, the system named is swine liver esterase. The data set is described as follows: Decomposition of glutathione derivatives by swine liver esterase (physiological stability). Conditions: BSA/D-PBS pH 7.4, 196-244 μg/ml. The data set is classed as in vitro ADME. As for the experimental part:
as §3, §4
Swine liver esterase and rabbit liver esterase experiment
30 mg-BSA/ml-D-PBS (pH 7.4): 36 to 45 parts
Swine or rabbit liver esterase/D-PBS: 4-5 parts
10 mg-glutathione derivative/ml-ethanol: one part (the final concentration in the reaction mixture is 196-244 μg/ml)

[4] abbreviates: compound 10^−5 M, Solvent control (EtOH), no differentiation induction substance.
Where [5] appears, read: compound 10^−5 M, with 1α,25(OH)2D3 (2 × 10^−9 M).
[6] abbreviates: compound 10^−5 M, with 9-cis-RA (5 × 10^−9 M).
Setting [7] is: compound 10^−6 M, Solvent control (EtOH), no differentiation induction substance.
Setting [8] is: compound 10^−6 M, with 1α,25(OH)2D3 (2 × 10^−9 M).
Where [9] appears, read: compound 10^−6 M, with 9-cis-RA (5 × 10^−9 M).
The mark [10] stands for this setting: compound 10^−7 M, Solvent control (EtOH), no differentiation induction substance.
Setting [11] is: compound 10^−7 M, with 1α,25(OH)2D3 (2 × 10^−9 M).
[12] abbreviates: compound 10^−7 M, with 9-cis-RA (5 × 10^−9 M).

With `CCOC(=O)[C@@H](N)CCC(=O)N[C@@H](CSCc1ccccc1)C(=O)N[C@@H](C(=O)OCC)c1ccccc1.Cl` [Comparative Example 1, Glu(Cys(Bzl)-D-Phg-O(Et))-O(Et)hydrochloride, reference compound], the “Stability in biological sample solutions such as rat blood” value in “Stability in rat plasma” is given as “very unstable”. In addition, the “Half life in rat plasma” value in “Stability in rat plasma” was 0.00217 h. The “Half life in the plasma of experimental animals” value in the data set “Stability in rat plasma” (mice and rats) is “extremely short half life”. Moreover, in data set [1], the “Half life in rabbit plasma” value was determined as 6.53 h. For the same compound, the “Ratio of NBT reduction activity-positive cells” value was 0.4% in data set [2] (setting [4]); 13.0% in data set [2] (setting [5]); 18.8% in data set [2] (setting [6]); 0.2% in data set [2] (setting [7]); 7.6% in data set [2] (setting [8]); 10.1% in data set [2] (setting [9]). In addition, the “Ratio of NBT reduction activity-positive cells” value is on record as 0.2% in data set [2] (setting [10]), 5.4% in data set [2] (setting [11]) and 6.3% in data set [2] (setting [12]). The “Half life in human plasma” value in data set [3] was 10.7 h. In the data set with swine liver esterase, the “Decomposition rate constant by swine liver esterase” value (“Decomposition rate constant” for short) is 121 10^−4/unit/min.

Regarding `CCCCCCCCOC(=O)[C@H](NC(=O)[C@H](CSCc1ccccc1)NC(=O)CC[C@H](N)C(=O)OCC)c1ccccc1.Cl` [Comparative Example 2, Glu(Cys(Bzl)-D-Phg-O(Octyl))-O(Et)hydrochloride, reference compound], the “Half life in rat plasma” value in “Stability in rat plasma” worked out at 0.0035 h. Further, in data set [1], the “Half life in rabbit plasma” value worked out at 3.97 h. Also, the “Ratio of NBT reduction activity-positive cells” value in data set [2] (setting [4]) was 0.6%; in data set [2] (setting [5]), 18.2%; in data set [2] (setting [6]), 33.2%; in data set [2] (setting [7]), 0.4%; in data set [2] (setting [8]), 9.3%; in data set [2] (setting [9]), 15.2%. The “Ratio of NBT reduction activity-positive cells” value in data set [2] (setting [10]) stood at 0.2%; in data set [2] (setting [11]), 4.6%; in data set [2] (setting [12]), 7.4%. For the same compound, the “Half life in human plasma” value in data set [3] turned out to be 10.3 h. In addition, the “Decomposition rate constant” value in the data set with swine liver esterase was 364 10^−4/unit/min.

Consider `CCCCCCCCCCCCCCCCOC(=O)[C@@H](N)CCC(=O)N[C@@H](CSCc1ccccc1)C(=O)N[C@@H](C(=O)OCC)c1ccccc1.Cl` [Example 4, Glu(Cys(Bzl)-D-Phg-OEt)-O(Hexadecyl)hydrochloride], for which the “Half life in rat plasma” value in the data set “Stability in rat plasma” was determined as 2.57 h. Besides, the “Half life in rabbit plasma” value in data set [1] stood at 22.05 h. Also, the “Ratio of NBT reduction activity-positive cells” value in data set [2] (setting [4]) came out at 0.2%; in data set [2] (setting [5]) it was 31.3%; in data set [2] (setting [6]), 18.0%; in data set [2] (setting [7]) it was 0.2%; in data set [2] (setting [8]), 10.3%; in data set [2] (setting [9]) it was 10.4%. The “Ratio of NBT reduction activity-positive cells” value in data set [2] (setting [10]) is 0.2%; in data set [2] (setting [11]), 5.7%; in data set [2] (setting [12]), 6.7%. For the same compound, the “Half life in human plasma” value in data set [3] is 184.77 h. Also, the “Decomposition rate constant” value with swine liver esterase was 0.466 10^−4/unit/min.

The values are drawn from patent publication US6627732B1, “Glutathione derivatives and their dosage forms” (Teijin Limited, priority 1998, dated 2003).
